Where two headings read alike, the source gives them in different places.
Columns and labels:
[1] = system: greenhouse red spider mite (Tetranychus urticae); test: Tetranychus urticae spray test, OP-resistant (TETRUR), bean leaf disks; type: in vivo; details: for pest or weed control at 500 g/ha: Tetranychus urticae, foliar, 144 h, read-out: efficacy in %
Experimental: Tetranychus urticae—Spray Test, OP-Resistant (TETRUR)
Solvent: 78.0 parts by weight of acetone
• 1.5 parts by weight of dimethylformamide Emulsifier: alkylaryl polyglycol ether
To produce a suitable preparation of active compound, 1 part by weight of active compound is dissolved using the stated parts by weight of solvent and made up with water containing an emulsifier concentration of 1000 ppm until the desired concentration is attained. To produce further test concentrations, the preparation is diluted with emulsifier-containing water.
disks of bean leaves (Phaseolus vulgaris) infested with all stages of the greenhouse red spider mite (Tetranychus urticae) are sprayed with an active compound preparation of the desired concentration.
After 6 days, the efficacy in % is determined. 100% means that all the spider mites have been killed; 0% means that none of the spider mites have been killed.

[2] = log P determination by HPLC on reversed-phase columns (C 18), analogously to OECD Guideline 117; type: physicochemical; details: for logP (HCOOH): LC-MS in the acidic range, pH 2.7, 0.1% aqueous formic acid / acetonitrile; for logP (HCOOH) / logP (neutral): HPLC reversed-phase C 18; for logP (neutral): LC-MS in the neutral range, pH 7.8, 0.001 molar aqueous ammonium hydrogencarbonate / acetonitrile; for chromatographic logP: reversed-phase C18 HPLC column
Experimental: The log P values were determined analogously to OECD Guideline 117 (EC Directive 92/69/EEC) by HPLC (high-performance liquid chromatography) using reversed-phase columns (C 18), by the following methods:
[a] The LC-MS determination in the acidic range was effected at pH 2.7 with 0.1% aqueous formic acid and acetonitrile (contains 0.1% formic acid) as eluents; linear gradient from 10% acetonitrile to 95% acetonitrile. log P^[a] is also referred to as log P(HCOOH). [b] LC-MS determination in the neutral range was effected at pH 7.8 with 0.001 molar aqueous ammonium hydrogencarbonate solution and acetonitrile as eluents; linear gradient from 10% acetonitrile to 95% acetonitrile. log P^[…] is also referred to as log P(neutral).

[3] = bean leaf disks, application rate 500 g/ha, after 6 days
[4] = acidic range, pH 2.7, 0.1% aqueous formic acid and acetonitrile, read-out: log P[a] / log P(HCOOH)
[5] = neutral range, pH 7.8, 0.001 molar aqueous ammonium hydrogencarbonate and acetonitrile, read-out: log P[b] / log P(neutral)

SMILES | efficacy in % [1, 3] | logP (HCOOH) [2] | logP (neutral) [2] | pest or weed control at 500 g/ha [1, 3] | chromatographic logP [2, 4] | chromatographic logP [2, 5] | pest or weed control at 500 g/ha [1]
Cc1cc(F)c(-n2c(=O)n(C)c(=O)n2C(C)C)cc1SCC(F)(F)F [Example 62] | 90% | 3.29 | 3.23 | – | – | – | –
Cc1cc(F)c(-n2c(=O)n(C)n(C)c2=O)cc1SCC(F)(F)F [Example 116, 4-{2-Fluoro-4-methyl-5-[(2,2,2-trifluoroethyl)sulfanyl]phenyl}-1,2-dimethyl-1,2,4-triazolidine-3,5-dione] | – | – | – | 100% | 2.4 | 2.39 | –
Cc1cc(C)c([S+]([O-])CC(F)(F)F)cc1N1C(=O)C(=O)N(CC(F)(F)F)C1=S (centres unmarked) [Example 188] | 90% | 3.18 | – | – | – | – | –
CCn1c(=O)n(C(C)(C)C)c(=O)n1-c1ccc(C)c(SCC(F)(F)F)c1 [Example 134] | 100% | 4.32 | 4.27 | – | – | – | –
CCn1c(=O)n(-c2cc(SCC(F)(F)F)c(C)cc2F)c(=O)n1C [Example 122, 1-Ethyl-4-{2-fluoro-4-methyl-5-[(2,2,2-trifluoroethyl)sulfanyl]phenyl}-2-methyl-1,2,4-triazolidine-3,5-dione] | – | – | – | 90% | 2.71 | – | –
C=CCn1c(=O)n(CC(F)(F)F)n(-c2cc([S+]([O-])CC(F)(F)F)c(C)cc2F)c1=O (centres unmarked) [Example 166] | 90% | 2.72 | 2.89 | – | – | – | –
Cc1cc(F)c(N2C(=O)OCC2C)cc1SCC(F)(F)F (centres unmarked) [Example 108, 3-[2-Fluoro-4-methyl-5-(2,2,2-trifluoroethylsulfanyl)phenyl]-4-methyloxazolidin-2-one] | – | – | – | 90% | 2.92 | – | –
Cc1cc(F)c(-n2c(=O)n(C(C)(C)C)c(=O)n2CC(F)(F)F)cc1SCC(F)(F)F [Example 147] | 100% | 4.34 | 4.28 | – | – | – | –
CCn1c(=O)n(-c2cc(SCC(F)(F)F)c(C)cc2F)n(C(C)(C)C)c1=O [Example 142] | 100% | 4.19 | 4.13 | – | – | – | –
Cc1cc(F)c(N2C(=O)C(=O)N(CC(C)(C)C)C2=S)cc1SCC(F)(F)F [Example 192] | 90% | 4.89 | 4.80 | – | – | – | –
Cc1cc(C)c(N2C(=O)C(=O)N(CC(F)(F)F)C2=S)cc1SCC(F)(F)F [Example 187] | 90% | 4.21 | – | – | – | – | –
CCn1c(=O)n(C)c(=O)n1-c1ccc(C)c(SCC(F)(F)F)c1 [Example 51] | 90% | 2.82 | 2.83 | – | – | – | –
Cn1c(=O)n(C)n(-c2ccc(Br)c(SCC(F)(F)F)c2)c1=O [Example 68] | 100% | 2.83 | 2.78 | – | – | – | –
COc1ccc(-n2c(=O)n(C)c(=O)n2C)cc1[S+]([O-])CC(F)(F)F (centres unmarked) [Example 32] | 100% | 1.58 | 1.54 | – | – | – | –
C=CCn1c(=O)n(C)c(=O)n1-c1ccc(C)c(SCC(F)(F)F)c1 [Example 58] | 100% | 3.03 | 2.88 | – | – | – | –
Cn1c(=O)n(C2CC2)c(=O)n1-c1ccc(Cl)c(SCC(F)(F)F)c1 [Example 40] | 100% | 3.04 | 2.98 | – | – | – | –
Cc1ccc(-n2c(=O)n(C(C)(C)C)c(=O)n2C(C)C)cc1SCC(F)(F)F [Example 135] | 90% | 4.77 | 4.70 | – | – | – | –

SMILES | efficacy in % [1, 3] | logP (HCOOH) [2] | logP (neutral) [2] | pest or weed control at 500 g/ha [1, 3] | chromatographic logP [2, 4] | chromatographic logP [2, 5] | pest or weed control at 500 g/ha [1]
Cc1ccc(-n2c(=O)n(C(C)(C)C)c(=O)n2C)cc1[S+]([O-])CC(F)(F)F (centres unmarked) [Example 139] | 100% | 2.71 | 2.70 | – | – | – | –
Cn1c(=O)n(C)n(-c2ccc(Cl)c(SCC(F)(F)F)c2)c1=O [Example 31] | 90% | 2.72 | 2.69 | – | – | – | –
Cc1cc(F)c(N2C(=O)CSC2=NCC(F)(F)F)cc1SCC(F)(F)F [Example 11, 3-{2-Fluoro-4-methyl-5-[(2,2,2-trifluoroethyl)sulfanyl]phenyl}-2-[(2,2,2-trifluoroethyl)imino]-1,3-thiazolidin-4-one] | – | – | – | 90% | 3.6 | 3.5 | –
Cc1cc(C)c(N2CCNC2=O)cc1SCC(F)(F)F [Example 1, 1-{2,4-Dimethyl-5-[(2,2,2-trifluoroethyl)sulfanyl]phenyl}imidazolidin-2-one] | – | – | – | – | 2.43 | 2.39 | 90%
CCn1c(=O)n(-c2ccccc2)c(=O)n1-c1cc(SCC(F)(F)F)c(C)cc1F [Example 87, 1-Ethyl-2-{2-fluoro-4-methyl-5-[(2,2,2-trifluoroethyl)sulfanyl]phenyl}-4-phenyl-1,2,4-triazolidine-3,5-dione] | – | – | – | 90% | 3.71 | 3.69 | –
Cc1cc(F)c(-n2[nH]c(=O)n(C)c2=O)cc1SCC(F)(F)F [Example 55] | 90% | 2.09 | 0.60 | – | – | – | –
Cc1cc(F)c(N2C(=O)CSC2=NCC(C)(C)C)cc1SCC(F)(F)F [Example 113] | 100% | 4.84 | 4.73 | – | – | – | –
Cn1c(=O)n(C2CC2)c(=O)n1-c1ccc(Cl)c([S+]([O-])CC(F)(F)F)c1 (centres unmarked) [Example 39] | 100% | 2.20 | 2.17 | – | – | – | –
Cc1cc(F)c(N2C(=O)C(C)(C)C(=O)N2c2ccccc2)cc1SCC(F)(F)F [Example 173] | 90% | 3.64 | 3.58 | – | – | – | –
Cc1cc(F)c(N2C(=O)N(C)C(C)(C)C2=O)cc1[S+]([O-])CC(F)(F)F (centres unmarked) [Example 17, 3-{2-Fluoro-4-methyl-5-[(2,2,2-trifluoroethyl)sulfinyl]phenyl}-1,5,5-trimethylimidazolidine-2,4-dione] | – | – | – | 100% | 2.04 | 2.01 | –
Cc1cc(F)c(N2C(=O)N(C3CC3)C(=O)C2C)cc1SCC(F)(F)F (centres unmarked) [Example 214] | 100% | 3.12 | – | – | – | – | –
C=CCn1c(=O)n(-c2cc(SCC(F)(F)F)c(C)cc2F)c(=O)n1C [Example 125] | 100% | 2.91 | – | – | – | – | –
Cc1ccc(-n2c(=O)n(C3CC3)c(=O)n2Cc2ccccc2)cc1SCC(F)(F)F [Example 90] | 100% | 3.81 | 3.71 | – | – | – | –
Cc1cc(F)c(N2CCOC2=O)cc1[S+]([O-])CC(F)(F)F (centres unmarked) [Example 105, 3-[2-Fluoro-4-methyl-5-(2,2,2-trifluoroethylsulfinyl)phenyl]oxazolidin-2-one] | – | – | – | 90% | 1.64 | – | –
Cc1cc(F)c(-n2c(=O)n(-c3ccccc3)c(=O)n2C)cc1[S+]([O-])CC(F)(F)F (centres unmarked) [Example 163] | 90% | 2.44 | 2.38 | – | – | – | –
CCC1(CC)C(=O)N(C)N(c2cc(SCC(F)(F)F)c(C)cc2F)C1=O [Example 175] | 100% | 3.41 | 3.40 | – | – | – | –
Cc1cc(F)c(-n2c(=O)n(C3CC3)c(=O)n2CC(F)(F)F)cc1[S+]([O-])CC(F)(F)F (centres unmarked) [Example 164] | 90% | 2.58 | 2.54 | – | – | – | –

Source: US9981928B2, “Aryl sulfide derivatives and aryl sulfoxide derivatives as acaricides and insecticides” (BAYER CROPSCIENCE AKTIENGESELLSCHAFT, priority 2013, dated 2018)
